Like-named read-outs stand apart in the source and are kept apart here. Residues, ends and D or L forms follow the SMILES beside them. *: point of attachment. Cbz = O=C(OCc1ccccc1)*; CH2F = FC*
Legend:
[1] = system: human glycine N-methyltransferase promoter; assay: GNMT promoter-driven luciferase reporter assay in H7GPL cells; type: cell-based; conditions: for fold induction at 10 µM: Homo sapiens, H7GPL, read-out: Fold change (10 uM)
Method: Please refer to FIG. 1, which illustrates the configuration of pLV-GNMTpLuc plasmid. HEK293T cells were cotransfected with a packaging plasmid-pCMV-ΔR8.91, a VSV-G envelope expressing plasmid-pMD.G and pLV-GNMTpLuc using TurboFect™ Reagent (Fermentas, Hanover, Md.). One resultant colony was picked, amplified and denominated as H7GPL (HuH-7-GNMT promoter-Luciferase). The relative luciferase activity (RLA) was calculated as “activity of luciferase/intensity of alamarBlue fluorescence”. The fold changes in GNMT promoter induction was calculated as “RLA of drug/RLA of solvent control”. Compounds with the ability to activate human glycine N-methyltransferase promoter in H7GPL could serve as a citeria for screening drugs.
Please refer to FIG. 2, which illustrates the luciferase activity in a screening platform. Previously, 26 FDA approved drugs were identified that can reverse the gene expression signature of HCC. We obtained 26 drugs. H7GPL cells were seeded in 96-well plates for 18 hours and then were treated with these 26 drugs and solvent control for an extra 24 hours.
In the initial screening, when (individual luciferase activity−average luciferase activity of all hits)/standardized Z scores of all samples is greater than 1.5, it means the compound has the capability of enhancing the GNMT reporter activity.
Huh7 cells were infected with this virus and selected with puromycin-containing medium. One resultant colony was picked, amplified and denominated as H7GPL (Huh7 GNMT promoter-luciferase). The cell lysate of H7GPL was used for luciferase activity measurement using the Luciferase Assay System (Promega).
For primary screening, H7GPL cells seeded in 96-well plates were treated for 24 h with individual drugs at a concentration of 2 mg/mL for crude extracts and 0.2 mg/mL for pure compounds and then were lysed for the luciferase activity assay using the Luciferase Assay System (Promega, Madison, Wis., USA).
Reporter activity for each well was transformed to the Z score by using data from all assay plates.
Then, hits of primary screening were sorted by Z score ≥1.5 and used for secondary screening.
And then placed in the above-described culture plate H7GPL cell replication, and after the disposal of seized goods in those 20 hours, the company added AbD serotec Reagent (Oxford, UK), further cultured for 4 hours.
The cytotoxicity was measured according to the manufacturer's recommendation for assessing the reporter gene.
Drugs that induced GNMT promoter activity ≥1.5-fold were considered as hits of the secondary screen with the capability of enhancing the activity of GNMT.

c-Myc protein = assay: Protein degradation inhibitors on PGG-induced c-Myc degradation; type: cell-based, human; conditions: co-treatment with PGG, Huh7 cells, FIG. 45
Huh7 cells = assay: Combination treatment, Huh7 xenograft tumor volume; type: in vivo, NOD-SCID mice; conditions: sorafenib 10 mpk; F3-6 25 mpk or 300 mpk
Method: Please refer to FIG. 29, which illustrates the tumor volume, wherein the numeral 1 is for a physiological saline solution, the numeral 2 is for F3-6 (25 mg/kg (mpk)), the numeral 3 is for F3-6 (300 mpk), the numeral 4 is for sorafenib (10 mpk), the numeral 5 is for F3-6 (25 mpk) with sorafenib (10 mpk), and the numeral 6 is for PGG (25 mpk) with sorafenib (10 mpk).
To assess the combinatory effect of drugs, female nonobese diabetic/severe combined immunodeficiency (NOD-SCID) mice lacking thymus gland were injected with Huh7 cells (2×10^6).
Mice are administered F3-6 (25 mpk), F3-6 (300 mpk) or PGG (25 mpk) three times per week, and sorafenib (10 mpk) twice per week alone or combined with F3-6 or PGG as illustrated in FIG. 29.
(§1) Tumor growth was monitored (every day or three times per week) by using Vernier caliper measurement of the length (L) and width (W) of the tumor.
(§2) Tumor volume (TV) was calculated by using the formula volume=(L×W^2)/2.

[2] = system: Huh7-GFP and Huh7-GNMT transfected cells; assay: Sorafenib in Huh7-GFP / Huh7-GNMT xenograft; type: in vivo, NOD-SCID mice
Method: To assess the effect of additional GNMT to administering sorafenib, female nonobese diabetic/severe combined immunodeficiency (NOD-SCID) mice lacking thymus gland were subcutaneously injected with […] or Huh7-GFP cells. The mice were randomly grouped and treated with a sorafenib or a physiological saline. Overexpression of GNMT inhibits cancer cell proliferation compared to the tumor due to Huh7-GFP cells.
Please refer to FIG. 27, which illustrates that the tumor cells are treated with the compound of sorafenib, wherein the numeral 1 is for Huh7-GFP transfected cells administered with a physiological saline, the numeral 2 is for Huh7-GNMT transfected cells administered with a physiological saline, the numeral 3 is for Huh7-GFP transfected cells administered with 10 mg/kg sorafenib and the numeral 4 is for Huh7-GNMT transfected cells administered with 10 mg/kg sorafenib. […] Based on the above results, a survey for the effect of PGG combined with sorafenib as a combination therapy to liver cancer was conducted. […]
as §1, §2

Huh7-GNMT cells = assay: Sorafenib cell viability in Huh7-GFP and Huh7-GNMT cells; type: cell-based, human; conditions: 2.5 μM sorafenib
Method: The cell viability is determined after Huh7-GFP cells capable of expressing Green fluorescent protein (GFP) and Huh7-GNMT cells are treated with an increased concentration of sorafenib.
Please refer to FIG. 26, which illustrates the effect of sorafenib on cell proliferation, wherein numerals 1 and 2 denote Huh7-GFP cells and Huh7-GNMT respectively.
Stablized cells comprises Huh7-GFP, Huh7-GNMT, Huh7-shGNMT, Huh7-shLacZ and Huh7-shMyc, which are established via the lentivirus system and cultured in Dulbecco's Modified Eagle's Medium (DMEM) (Gibco BRL, Grand Island, N.Y., USA) with 1 μg/ml puromycin.

[3] = GNMT promoter induction, RLA of drug/RLA of solvent control, 10 uM, 24 hours

O=c1cc(-c2ccc(O)cc2)oc2cc(O)cc(O)c12 [Apigenin]
GNMT promoter activity (in words) ([1]; H7GPL luciferase): remarkably induced GNMT promoter activity
fold induction at 10 µM [1, 3]: 1.8

COc1ccccc1N1CCN(CCCCNC(=O)c2ccc3ccccc3c2)CC1.Cl.Cl [DO 897/99]
Fold change (10 uM) [1, 3]: 0.9

CN1CCN(CCCN2c3ccccc3Sc3ccc(Cl)cc32)CC1 [Prochlorperazine]
fold induction at 10 µM [1, 3]: 0.7

Cc1cc(/C=C/c2ccc3cc(N(C)C)ccc3[n+]2C)c(C)n1-c1ccccc1 [Pyrvinium]
fold induction at 10 µM [1, 3]: 0.5

CC(C)COCC(CN(Cc1ccccc1)c1ccccc1)N1CCCC1 (stereo not drawn) [Bepridil]
fold induction at 10 µM [1, 3]: 0.7

CSc1ccc2c(c1)N(CCC1CCCCN1C)c1ccccc1S2 (stereo not drawn) [Thioridazine]
fold induction at 10 µM [1, 3]: 0.1

Cl.N [NH4Cl]
prevention of PGG-induced c-Myc degradation / inhibition of c-Myc protein expression (c-Myc protein): can not prevent

CCN(CC)CCCC(C)Nc1ccnc2cc(Cl)ccc12 (stereo not drawn) [chloroquine diphosphate]
prevention of PGG-induced c-Myc degradation / inhibition of c-Myc protein expression (c-Myc protein): can not prevent

Tyloxapol
Fold change (10 uM) [1, 3]: 0.6

CC(/C=C/C(=O)NO)=C\[C@@H](C)C(=O)c1ccc(N(C)C)cc1 [trichostatin A]
Fold change (0.2 uM) ([1]; GNMT promoter induction, 0.2 uM, 24 hours): 3.4 with Fold
GNMT promoter activity (in words) ([1]; H7GPL luciferase): remarkably induced GNMT promoter activity

Clc1ccc(C(OCCN2CCCCC2)c2ccccc2)cc1 (stereo not drawn) [Cloperastine]
fold induction at 10 µM ([1]; 24 h): 1

Oc1c(I)cc(Cl)c2cccnc12 [clioquinol(quinoinol), clioquinol]
GNMT promoter activity (in words) ([1]; H7GPL luciferase): remarkably induced GNMT promoter activity
fold induction at 10 µM [1, 3]: 3.8

OC(c1cc(C(F)(F)F)nc2c(C(F)(F)F)cccc12)C1CCCCN1 (stereo not drawn) [Mefloquine]
fold induction at 10 µM [1, 3]: 0.3

CC1=C(CO)C(=O)O[C@@H]([C@@H](C)[C@H]2CC[C@H]3[C@@H]4C[C@H]5O[C@]56[C@@H](O)C=CC(=O)[C@]6(C)[C@H]4CC[C@]23C)C1 [withaferin A]
Fold change (10 uM) [1, 3]: 0

CC[C@@]1(O)C(=O)OCc2c1cc1n(c2=O)Cc2cc3ccccc3nc2-1 [Camptothecin]
fold induction at 10 µM [1, 3]: 0.4

OCCN(CCO)c1nc(N2CCCCC2)c2nc(N(CCO)CCO)nc(N3CCCCC3)c2n1 [Dipyridamole]
fold induction at 10 µM [1, 3]: 0.9

Cc1cc(C2CCCCC2)n(O)c(=O)c1 [Ciclopirox]
GNMT promoter activity (in words) ([1]; H7GPL luciferase): remarkably induced GNMT promoter activity
fold induction at 10 µM [1, 3]: 8.2

O=C1Nc2ccc3ncsc3c2/C1=C/Nc1ccc(S(=O)(=O)Nc2ccccn2)cc1 [GW-8510]
Fold change (10 uM) [1, 3]: 0.4

Cc1cc2cc3c(C)cc(=O)oc3c(C)c2o1 [Trioxysalen]
fold induction at 10 µM ([1]; 24 h): 1.2

CN(C)CCCN1c2ccccc2Sc2ccc(Cl)cc21 [Chlorpromazine]
fold induction at 10 µM [1, 3]: 0.7

COC(=O)Nc1nc2ccc(C(=O)c3ccccc3)cc2[nH]1 [Mebendazole]
fold induction at 10 µM [1, 3]: 1

CN1CCN(CCCN2c3ccccc3Sc3ccc(C(F)(F)F)cc32)CC1 [Trifluoperazine]
fold induction at 10 µM [1, 3]: 0.1

CC(C)C[C@@H](C=O)NC(=O)[C@H](CC(C)C)NC(=O)[C@H](CC(C)C)NC(=O)OCc1ccccc1 [MG132, Z-LEU-LEU-LEU-CHO] (Cbz-Leu-Leu-Leu-aldehyde)
prevention of PGG-induced c-Myc degradation / inhibition of c-Myc protein expression (c-Myc protein): can not prevent

O=C(O)c1cc(O)c(O)c(O)c1 [gallic acid]
GNMT promoter activity (in words) ([1]; H7GPL luciferase): none of which can either affect the activity of GNMT promoter

Clc1ccc(CSC(Cn2ccnc2)c2ccc(Cl)cc2Cl)cc1 (stereo not drawn) [Sulconazole]
fold induction at 10 µM [1, 3]: 0.5

O=C(O)CN(CCN(CC(=O)O)CC(=O)O)CC(=O)O [EDTA, ethylenediamine-tetraacetic acid]
prevention of PGG-induced c-Myc degradation / inhibition of c-Myc protein expression (c-Myc protein): can not prevent

CC(COc1ccccc1)N(CCCl)Cc1ccccc1 (stereo not drawn) [Phenoxybenzamine]
fold induction at 10 µM ([1]; 24 h): 0.7

C[n+]1cc2c3c(ccc2c2ccc4cc5c(cc4c21)OCO5)OCO3 [Sanguinarine]
fold induction at 10 µM ([1]; 24 h): 0.1

C=CCNC1=C2C[C@@H](C)C[C@H](OC)[C@H](O)[C@@H](C)/C=C(\C)[C@H](OC(N)=O)[C@@H](OC)/C=C\C=C(/C)C(=O)NC(=CC1=O)C2=O [Tanespimycin]
fold induction at 10 µM [1, 3]: 0.5

CNC(=O)c1cc(Oc2ccc(NC(=O)Nc3ccc(Cl)c(C(F)(F)F)c3)cc2)ccn1 [sorafenib, 4-[4-[[4-chloro-3-(trifluoromethyl)phenyl]carbamoylamino]phenoxy]-N-methyl-pyridine-2-carbox-amide]
tumor growth, single drug (Huh7 cells): effective in inhibiting the tumor growth
size of the tumor, Huh7-GNMT transfected cells, compared with other groups ([2]; 10 mg/kg): reducing the size of the tumor is statistically significant
tumor growth ([2]; oral 10 mpk, three days a week): significantly inhibits tumor growth
viability of GNMT stable cells compared to GFP control cells (Huh7-GNMT cells): decreased significantly

COC(=O)C[C@H](NC(=O)[C@H](C)NC(=O)[C@@H](NC(=O)OCc1ccccc1)C(C)C)C(=O)CF [Z-VAD-FMK, N-Benzyloxycarbonyl-Val-Ala-Asp (Ome)fluoromethyl ketone] (Cbz-Val-Ala-Asp(OMe)-CH2F)
prevention of PGG-induced c-Myc degradation / inhibition of c-Myc protein expression (c-Myc protein): can prevent

O=c1cc(-c2ccc(O)c(O)c2)oc2cc(O)cc(O)c12 [Luteolin]
GNMT promoter activity (in words) ([1]; H7GPL luciferase): remarkably induced GNMT promoter activity
fold induction at 10 µM [1, 3]: 1.9

O=C(CCCCCCC(=O)Nc1ccccc1)NO [suberoylanilide hydroxamic acid]
GNMT promoter activity (in words) ([1]; H7GPL luciferase): remarkably induced GNMT promoter activity
dose dependence of GNMT promoter activity ([1]; H7GPL luciferase): dose-dependently
GNMT promoter activity (in words) ([1]; H7GPL luciferase, listed as SAHA): potent GNMT inducer
fold induction at 10 µM ([1]; 24 h): 18.6

CCCC[C@@H](C=O)NC(=O)[C@H](CC(C)C)NC(=O)OCc1ccccc1 [calpeptin, N-Benzyloxy-carbonyl-L-leucyl-L-norleucinal]
prevention of PGG-induced c-Myc degradation / inhibition of c-Myc protein expression (c-Myc protein): can not prevent
